According to patent US7183415B2, “Quinoline compound” (Takeda Pharmaceutical Company Limited, priority 2001, dated 2007):

Compound	melting point [°C]
Cc1cc(C(=O)Nc2ccc3cc(CN4CCCC4)cnc3c2C)ccc1-c1ccc(F)cc1 [Example 160, 4′-fluoro-2-methyl-N-[8-methyl-3-(1-pyrrolidinylmethyl)-7-quinolinyl][1,1′-biphenyl]-4-carboxamide]	200 to 202
Cc1c(NC(=O)c2ccc(OCc3ccccc3)cc2)ccc2cc(CN3CCCCC3)cnc12 [Example 161, 4-(benzyloxy)-N-[8-methyl-3-(1-piperidinylmethyl)-7-quinolinyl]benzamide]	186 to 187
Cc1c(NC(=O)c2ccc(OCc3ccc(F)cc3)cc2)ccc2cc(CN3CCCCC3)cnc12 [Example 162, 4-[(4-fluorobenzyl)oxy]-N-[8-methyl-3-(1-piperidinylmethyl)-7-quinolinyl]benzamide]	159 to 160
COc1ccc(-c2ccc(C(=O)Nc3ccc4cc(CN5CCCCC5)cnc4c3C)cc2)cc1 [Example 165]	190 to 192
Cc1c(NC(=O)c2ccc(-c3ccc(F)cc3)cc2)ccc2cc(CN3CCCCC3)cnc12 [Example 166, 4′-fluoro-N-[8-methyl-3-(1-piperidinylmethyl)-7-quinolinyl][1,1′-biphenyl]-4-carboxamide]	188 to 190
Cc1c(NC(=O)c2ccc(-c3ccc(Cl)s3)cc2)ccc2cc(CN3CCCCC3)cnc12 [Example 167, 4-(5-chloro-2-thienyl)-N-[8-methyl-3-(1-piperidinylmethyl)-7-quinolinyl]benzamide]	212 to 213
Cc1c(NC(=O)c2ccc(-c3ccc(F)cc3)cc2F)ccc2cc(CN3CCCCC3)cnc12 [Example 170, 3,4′-difluoro-N-[8-methyl-3-(1-piperidinylmethyl)-7-quinolinyl][1,1′-biphenyl]-4-carboxamide]	186 to 187
COc1ccc(-c2ccc(C(=O)Nc3ccc4cc(CN5CCCCC5)cnc4c3C)c(F)c2)cc1 [Example 171, 3-fluoro-4′-methoxy-N-[8-methyl-3-(1-piperidinylmethyl)-7-quinolinyl][1,1′-biphenyl]-4-carboxamide]	191 to 192
COc1ccc(-c2ccc(C(=O)Nc3ccc4cc(CN5CCCCCC5)cnc4c3C)cc2)cc1 [Example 179, N-[3-(1-azepanylmethyl)-8-methyl-7-quinolinyl]-4′-methoxy[1,1′-biphenyl]-4-carboxamide]	165 to 167
Cc1c(NC(=O)c2ccc(-c3ccc(F)cc3)cc2)ccc2cc(CN3CCCCCC3)cnc12 [Example 180, N-[3-(1-azepanylmethyl)-8-methyl-7-quinolinyl]-4′-fluoro[1,1′-biphenyl]-4-carboxamide]	166 to 168
COc1ccc(-c2ccc(C(=O)Nc3ccc4cc(CN5CCCCCC5)cnc4c3C)c(F)c2)cc1 [Example 185, N-[3-(1-azepanylmethyl)-8-methyl-7-quinolinyl]-3-fluoro-4′-methoxy[1,1′-biphenyl]-4-carboxamide]	171 to 172

Results, then the molecule that gave them:

melting point [°C]	Compound
153 to 155	Cc1c(NC(=O)c2ccc(-c3ccc(F)cc3)cc2)ccc2cc(CN3CCC3)cnc12 [Example 191, N-[3-(1-azetidinylmethyl)-8-methyl-7-quinolinyl]-4′-fluoro[1,1′-biphenyl]-4-carboxamide]
167 to 168	Cc1c(NC(=O)c2ccc(-c3ccc(F)cc3)cc2)ccc2cc(CN3[C@H](C)CCC[C@@H]3C)cnc12 [Example 193, N-(3-{[(2R,6S)-2,6-dimethylpiperidinyl]methyl}-8-methyl-7-quinolinyl)-4′-fluoro[1,1′-biphenyl]-4-carboxamide]
179 to 180	Cc1c(NC(=O)c2ccc(-c3ccc(F)cc3)cc2)ccc2cc(CN(C(C)C)C(C)C)cnc12 [Example 194, N-{3-[(diisopropylamino)methyl]-8-methyl-7-quinolinyl}-4′-fluoro[1,1′-biphenyl]-4-carboxamide]
176 to 178	Cc1c(NC(=O)c2ccc(-c3ccc(F)cc3)cc2)ccc2cc(CN3CCOCC3)cnc12 [Example 198, 4′-fluoro-N-[8-methyl-3-(4-morpholinylmethyl)-7-quinolinyl][1,1′-biphenyl]-4-carboxamide]
258 to 260	Cc1c(NC(=O)c2ccc(-c3ccc(F)cc3)cc2)ccc2cc(CN3CCC(CC(N)=O)CC3)cnc12 [Example 200, N-(3-{[4-(2-amino-2-oxoethyl)-1-piperidinyl]methyl}-8-methyl-7-quinolinyl)-4′-fluoro[1,1′-biphenyl]-4-carboxamide]
229 to 231	CNC(=O)CC1CCN(Cc2cnc3c(C)c(NC(=O)c4ccc(-c5ccc(F)cc5)cc4)ccc3c2)CC1 [Example 201, 4′-fluoro-N-[8-methyl-3-({4-[2-(methylamino)-2-oxoethyl]-1-piperidinyl}methyl)-7-quinolinyl][1,1′-biphenyl]-4-carboxamide]
200 to 201	Cc1c(NC(=O)c2ccc(-c3ccc(F)cc3)cc2)ccc2cc(CN3CCC(CC(=O)N(C)C)CC3)cnc12 [Example 202, N-[3-({4-[2-(dimethylamino)-2-oxoethyl]-1-piperidinyl}methyl)-8-methyl-7-quinolinyl]-4′-fluoro[1,1′-biphenyl]-4-carboxamide]
243 to 245	CCNC(=O)CC1CCN(Cc2cnc3c(C)c(NC(=O)c4ccc(-c5ccc(F)cc5)cc4)ccc3c2)CC1 [Example 203, N-[3-({4-[2-(ethylamino)-2-oxoethyl]-1-piperidinyl}methyl)-8-methyl-7-quinolinyl]-4′-fluoro[1,1′-biphenyl]-4-carboxamide]
158 to 160	CCN(CC)C(=O)CC1CCN(Cc2cnc3c(C)c(NC(=O)c4ccc(-c5ccc(F)cc5)cc4)ccc3c2)CC1 [Example 204, N-[3-({4-[2-(diethylamino)-2-oxoethyl]-1-piperidinyl}methyl)-8-methyl-7-quinolinyl]-4′-fluoro[1,1′-biphenyl]-4-carboxamide]
189 to 190	Cc1c(NC(=O)c2ccc(-c3ccc(F)cc3)cc2)ccc2cc(CN3CCC(CC(=O)N4CCCCC4)CC3)cnc12 [Example 205, 4′-fluoro-N-[8-methyl-3-({4-[2-oxo-2-(1-piperidinyl)ethyl]-1-piperidinyl}methyl)-7-quinolinyl][1,1′-biphenyl]-4-carboxamide]
232 to 234	Cc1c(NC(=O)c2ccc(-c3ccc(F)cc3)cc2)ccc2cc(CN3CCC(CCCC(N)=O)CC3)cnc12 [Example 206, N-(3-{[4-(4-amino-4-oxobutyl)-1-piperidinyl]methyl}-8-methyl-7-quinolinyl)-4′-fluoro[1,1′-biphenyl]-4-carboxamide]
210 to 212	CNC(=O)CCCC1CCN(Cc2cnc3c(C)c(NC(=O)c4ccc(-c5ccc(F)cc5)cc4)ccc3c2)CC1 [Example 207, 4′-fluoro-N-[8-methyl-3-({4-[4-(methylamino)-4-oxobutyl]-1-piperidinyl}methyl)-7-quinolinyl][1,1′-biphenyl]-4-carboxamide]
202 to 204	Cc1c(NC(=O)c2ccc(-c3ccc(F)cc3)cc2)ccc2cc(CN3CCC(CCCC(=O)N(C)C)CC3)cnc12 [Example 208, N-[3-({4-[4-(dimethylamino)-4-oxobutyl]-1-piperidinyl}methyl)-8-methyl-7-quinolinyl]-4′-fluoro[1,1′-biphenyl]-4-carboxamide]
